Results from patent publication US20230041996A1, “CALCIUM-SENSING RECEPTOR AGONIST COMPOUND AND APPLICATION THEREOF” (BEIJING TUO JIE BIOPHARMACEUTICAL CO. LTD., priority 2019, published 2023).
Square brackets hold non-standard residues; d marks the D form. Peptide text beside a SMILES is read from it. * marks the point of attachment. Cys(free,S-linked) = N[C@@H](CS*)C(=O)O; d(hLeu) = CC(C)CC[C@@H](N)C(=O)O; dChg = N[C@@H](C(=O)O)C1CCCCC1; dTle = CC(C)(C)[C@@H](N)C(=O)O; dAbu = CC[C@@H](N)C(=O)O

Key:
[1] = tested on: rat peritoneal mast cells; test: In vitro histamine release in rat peritoneal mast cells (histamine ELISA); type: cell-based; conditions: for Relative fold of histamine release in vitro: test compound final concentration 10 μM, 15 min at 37° C., relative to PBS buffer (1.00)
Experimental: To evaluate the in vitro histamine release levels induced by some of the test example compounds, rat peritoneal mast cells were collected by lavaging rat peritoneum with a lavage buffer (cold HBSS+25 mM HEPES containing heparin 5 U/mL, pH 7.4). After collection, the cells were centrifuged, and the lavage buffer was discarded. The cells were resuspended and washed twice with a stimulation buffer (HBSS+25 mM HEPES+1 mM CaCl2), pH 7.4). The cells were plated at a density of 10^5 cell/well (200 μL/well) and incubated at 37° C. for 15 min with positive control compound 48/80 (final concentration: 4 μg/mL), test example compounds (final concentration: 10 μM) or vehicle control. The cells were centrifuged, and cell supernatant was collected and tested for histamine concentration according to LDN Histamine ELISA kit (BAE-1000) instructions.

[2] = molecular target: T1, human calcium-sensing receptor (CaSR) (Homo sapiens, UniProt P41180); test: Agonist activity on human calcium-sensing receptor (IP-One HTRF in stably transfected HEK293/CaSR cells); type: cell-based; conditions: HEK293/CaSR cells, IP-One production, 60 min at 37° C., CaCl2 1.2 mM; read-out: EC50 for calcium-sensing receptor
T1 construct: host or cells: HEK293
T1 sequence (P41180 20-1078): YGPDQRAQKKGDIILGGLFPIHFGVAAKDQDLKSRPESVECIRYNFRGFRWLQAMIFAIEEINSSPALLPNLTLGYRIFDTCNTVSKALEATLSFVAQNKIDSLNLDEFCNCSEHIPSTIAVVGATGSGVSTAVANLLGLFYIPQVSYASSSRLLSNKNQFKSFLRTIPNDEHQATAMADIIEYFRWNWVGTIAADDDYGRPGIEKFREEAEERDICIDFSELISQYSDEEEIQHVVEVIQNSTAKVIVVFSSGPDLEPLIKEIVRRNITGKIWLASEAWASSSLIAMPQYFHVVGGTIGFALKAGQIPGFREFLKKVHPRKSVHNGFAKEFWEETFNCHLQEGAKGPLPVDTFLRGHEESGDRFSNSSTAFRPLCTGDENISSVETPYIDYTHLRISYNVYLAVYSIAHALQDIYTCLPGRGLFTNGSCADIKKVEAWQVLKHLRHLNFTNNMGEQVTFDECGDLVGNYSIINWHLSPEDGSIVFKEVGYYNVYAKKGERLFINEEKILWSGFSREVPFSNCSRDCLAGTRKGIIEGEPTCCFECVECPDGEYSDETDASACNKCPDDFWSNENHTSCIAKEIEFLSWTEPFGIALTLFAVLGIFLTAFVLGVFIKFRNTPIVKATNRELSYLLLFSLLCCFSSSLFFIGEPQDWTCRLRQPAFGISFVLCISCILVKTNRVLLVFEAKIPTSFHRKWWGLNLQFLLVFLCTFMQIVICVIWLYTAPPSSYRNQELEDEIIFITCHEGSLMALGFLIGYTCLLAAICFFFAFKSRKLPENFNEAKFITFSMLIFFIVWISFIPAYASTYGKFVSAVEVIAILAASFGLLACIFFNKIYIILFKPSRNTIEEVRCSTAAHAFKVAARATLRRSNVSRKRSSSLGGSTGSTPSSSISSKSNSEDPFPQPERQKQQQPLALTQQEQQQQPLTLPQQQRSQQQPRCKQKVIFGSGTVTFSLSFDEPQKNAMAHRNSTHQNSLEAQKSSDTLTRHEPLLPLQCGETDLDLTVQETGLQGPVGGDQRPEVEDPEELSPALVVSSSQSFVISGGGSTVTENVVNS
Experimental: 3.1.1 Objective: The test example is intended to measure the agonist activity of compounds 1-38 on the human calcium-sensing receptor (CaSR).
Stably transfected HEK293/CaSR cells (source: Pharmaron) were cultured in a complete medium (composition: DMEM, high glucose+10% FBS+2 mM GlutaMAX+1× Penicillin-Streptomycin+200 μg/mL Hygromycin B) and incubated at 37° C./5% CO2 till 70%-90% cell confluence. The cells were digested with TrypLE, inoculated into 384-well cell culture plates, and cultured overnight at 37° C./5% CO2. After buffer exchange, stimulation buffer (HEPES 10 mM, MgCl2 0.5 mM, KCl 4.2 mM, NaCl 146 mM, glucose 5.5 mM, LiCl 50 mM, CaCl2 1.2 mM) and various concentrations of the test example compounds were added and incubated at 37° C. for 60 min. Production of IP-One in cells was detected according to the procedures in the Cisbio IP-One Tb kit instructions. The EC50 values of various test example compounds in influencing human calcium-sensing receptor was calculated by software after the raw data of the example compounds were collected, so as to evaluate the agonist activity of the example compounds on human calcium-sensing receptor.
HTRF signal was read by an EnVision detector with an excitation wavelength of 320 nm and emission wavelengths of 620 nm and 665 nm. The signal ratio (665 nm/620 nm×10,000) was calculated and fitted non-linearly to the sample concentration in GraphPad Prism 6 using a four-parameter equation to give EC50 values of the test example compounds 1-38.

[3] = tested on: 5/6 nephrectomized rats; test: In vivo efficacy in 5/6 nephrectomized rat model after continuous administration (plasma parathyroid hormone, serum calcium)
Source text: 3.5.1 Objective: to evaluate the efficacy of some of the compounds disclosed herein in reducing plasma parathyroid hormone level and serum calcium level after continuous administration in a 5/6 nephrectomized rat model.
The rats were adapted. After anesthesia, ⅔ of the left kidney was surgically resected, and after 1 week of recovery, the right kidney was resected to establish the 5/6 nephrectomized rat model. After the second resection, the animals were normally fed for 2 weeks, tested for creatinine (CREA) and plasma parathyroid hormone level, and randomized as per the parathyroid hormone level into 4 groups of 10, including normal saline group, compound 17—low dose group, compound 17—high dose group and etelcalcetide group. After randomization, the normal saline group, compound 17—low dose group, compound 17—high dose group and etelcalcetide group were respectively administered with 1 dose of normal saline, 1 mg/kg of compound 17, 2 mg/kg of compound 17 and 1 mg/kg of etelcalcetide through the tail vein daily for 28 days. During the treatment period, parameters such as animal weight, plasma parathyroid hormone level and serum calcium were detected. The first day of treatment was taken as day 1.

SMILES	Relative fold of histamine release in vitro [1]	EC50 [2] [µM]	histamine release levels in rat peritoneal mast cells in vitro relative to etelcalcetide ([1]; 10 μM, comparison with etelcalcetide)	serum calcium reduction ([3]; after administration on days 1, 14 and 28)	extent of serum calcium reduction with the period of treatment ([3]; minimum of serum calcium on days 14 and 28 compared to day 1)
CC(=O)N[C@H](CSSC[C@H](N)C(=O)O)C(=O)N[C@H](CCCNC(=N)N)C(=O)N[C@H](CCCNC(=N)N)C(=O)N[C@H](Cc1ccc(O)cc1)C(=O)N[C@H](CCCNC(=N)N)C(=O)N[C@H](C)C(=O)N[C@H](CCCNC(=N)N)C(N)=O [Compound 24, Ac-c(C)-r-r-y-r-a-r-NH2] (Ac-[dC](Cys(free,S-linked))[dR][dR][dY][dR][dA][dR]-NH2)	3.18	2.03			
CC(=O)N[C@H](CSSC[C@H](N)C(=O)O)C(=O)N[C@H](CCCNC(=N)N)C(=O)N[C@H](CCCNC(=N)N)C(=O)N[C@H](CO)C(=O)N[C@H](CCCNC(=N)N)C(=O)N[C@H](CO)C(=O)N[C@H](CCCNC(=N)N)C(N)=O [Compound 25, Ac-c(C)-r-r-s-r-s-r-NH2] (Ac-[dC](Cys(free,S-linked))[dR][dR][dS][dR][dS][dR]-NH2)	1.65	10.1			
CC(=O)N[C@H](CSSC[C@H](N)C(=O)O)C(=O)N[C@H](CCCNC(=N)N)C(=O)N[C@H](CCCNC(=N)N)C(=O)N[C@H](CCC(N)=O)C(=O)N[C@H](CCCNC(=N)N)C(=O)N[C@H](CO)C(=O)N[C@H](CCCNC(=N)N)C(N)=O [Compound 26, Ac-c(C)-r-r-q-r-s-r-NH2] (Ac-[dC](Cys(free,S-linked))[dR][dR][dQ][dR][dS][dR]-NH2)	1.73	9.24			
CC(=O)N[C@H](CSSC[C@H](N)C(=O)O)C(=O)N[C@H](CCCNC(=N)N)C(=O)N[C@H](CCCNC(=N)N)C(=O)N[C@H](Cc1c[nH]cn1)C(=O)N[C@H](CCCNC(=N)N)C(=O)N[C@H](CO)C(=O)N[C@H](CCCNC(=N)N)C(N)=O [Compound 27, Ac-c(C)-r-r-h-r-s-r-NH2] (Ac-[dC](Cys(free,S-linked))[dR][dR][dH][dR][dS][dR]-NH2)	2.23	10.8			
CC(=O)N[C@H](CSSC[C@H](N)C(=O)O)C(=O)N[C@H](CCCNC(=N)N)C(=O)N[C@H](CCCNC(=N)N)C(=O)N[C@@H](C(=O)N[C@H](CCCNC(=N)N)C(=O)NCC(=O)N[C@H](CCCNC(=N)N)C(N)=O)C(C)C [Compound 30, Ac-c(C)-r-r-v-r-G-r-NH2] (Ac-[dC](Cys(free,S-linked))[dR][dR][dV][dR]G[dR]-NH2)	1.51	19.6			
CC[C@@H](NC(=O)[C@@H](CCCNC(=N)N)NC(=O)[C@@H](CCCNC(=N)N)NC(=O)[C@@H](CSSC[C@H](N)C(=O)O)NC(C)=O)C(=O)N[C@H](CCCNC(=N)N)C(=O)NCC(=O)N[C@H](CCCNC(=N)N)C(N)=O [Compound 32, Ac-c(C)-r-r-(D-Abu)-r-G-r-NH2] (Ac-[dC](Cys(free,S-linked))[dR][dR][dAbu][dR]G[dR]-NH2)	1.41	13.1	reduction in histamine release levels		
CC(=O)N[C@H](CSSC[C@H](N)C(=O)O)C(=O)N[C@H](CCCNC(=N)N)C(=O)N[C@H](CCCNC(=N)N)C(=O)N[C@H](CCC(C)C)C(=O)N[C@H](CCCNC(=N)N)C(=O)N[C@H](CO)C(=O)N[C@H](CCCNC(=N)N)C(N)=O [Compound 33, Ac-c(C)-r-r-(D-hLeu)-r-s-r-NH2] (Ac-[dC](Cys(free,S-linked))[dR][dR][d(hLeu)][dR][dS][dR]-NH2)	2.50	5.03			
CC(=O)N[C@H](CSSC[C@H](N)C(=O)O)C(=O)N[C@H](CCCNC(=N)N)C(=O)N[C@H](CCCNC(=N)N)C(=O)N[C@H](CCC(C)C)C(=O)N[C@H](CCCNC(=N)N)C(=O)NCC(=O)N[C@H](CCCNC(=N)N)C(N)=O [Compound 34, Ac-c(C)-r-r-(D-hLeu)-r-G-r-NH2] (Ac-[dC](Cys(free,S-linked))[dR][dR][d(hLeu)][dR]G[dR]-NH2)	2.28	12.2			
CC(=O)N[C@H](CSSC[C@H](N)C(=O)O)C(=O)N[C@H](CCCNC(=N)N)C(=O)N[C@H](CCCNC(=N)N)C(=O)N[C@@H](C(=O)N[C@H](CCCNC(=N)N)C(=O)N[C@H](CO)C(=O)N[C@H](CCCNC(=N)N)C(N)=O)C1CCCCC1 [Compound 35, Ac-c(C)-r-r-(D-Chg)-r-s-r-NH2] (Ac-[dC](Cys(free,S-linked))[dR][dR][dChg][dR][dS][dR]-NH2)	2.06	12.9			
CC(=O)N[C@H](CSSC[C@H](N)C(=O)O)C(=O)N[C@H](CCCNC(=N)N)C(=O)N[C@H](CCCNC(=N)N)C(=O)N[C@@H](C(=O)N[C@H](CCCNC(=N)N)C(=O)N[C@H](CO)C(=O)N[C@H](CCCNC(=N)N)C(N)=O)C(C)(C)C [Compound 37, Ac-c(C)-r-r-(D-Tle)-r-s-r-NH2] (Ac-[dC](Cys(free,S-linked))[dR][dR][dTle][dR][dS][dR]-NH2)	2.23	15.4			
CC(=O)N[C@H](CSSC[C@H](N)C(=O)O)C(=O)N[C@H](C)C(=O)N[C@H](CCCNC(=N)N)C(=O)N[C@H](CCCNC(=N)N)C(=O)N[C@H](CCCNC(=N)N)C(=O)N[C@H](C)C(=O)N[C@H](CCCNC(=N)N)C(N)=O [Etelcalcetide, Ac-c(C)-a-r-r-r-a-r-NH2, reference compound]	1.70	6.78		reversible serum calcium reduction	did not increase with the period of treatment
